± gives the expanded uncertainty stated by the source.
Experiments:
[1] = refractive index (Na D-line) (dimensionless); conditions: 298.15 K; 101.33 kPa; Liquid; Standard Abbe refractometry
[2] = Liquid, Vibrating tube method

CC(=O)N(C)C [N,N-dimethylethanamide]
Conditions	refractive index
[1]	1.43615 ± 0.00037

[2]
Conditions	mass density [kg/m3]
293.15 K, 300 kPa	941 ± 1
293.15 K, 2600 kPa	943 ± 1
293.15 K, 5100 kPa	944 ± 1
293.15 K, 10100 kPa	947 ± 1
293.15 K, 14900 kPa	950 ± 1
293.15 K, 20200 kPa	953 ± 1
293.15 K, 25200 kPa	955 ± 1
293.15 K, 30400 kPa	958 ± 1
298.15 K, 101.33 kPa	936.729 ± 4
303.2 K, 300 kPa	932 ± 1
303.2 K, 2500 kPa	933 ± 1
303.2 K, 5100 kPa	935 ± 1
303.2 K, 10200 kPa	938 ± 1
303.2 K, 15200 kPa	941 ± 1
303.2 K, 20200 kPa	944 ± 1
303.2 K, 24900 kPa	947 ± 1
303.2 K, 30200 kPa	950 ± 1
313.15 K, 100 kPa	922 ± 1
313.15 K, 2500 kPa	924 ± 1
313.15 K, 5200 kPa	926 ± 1
313.15 K, 10000 kPa	929 ± 1
313.15 K, 15200 kPa	932 ± 1
313.15 K, 20100 kPa	935 ± 1
313.15 K, 25200 kPa	938 ± 1
313.15 K, 30200 kPa	941 ± 1
323.15 K, 100 kPa	912 ± 1
323.15 K, 2500 kPa	915 ± 1
323.15 K, 5000 kPa	917 ± 1
323.15 K, 10100 kPa	920 ± 1
323.15 K, 15100 kPa	923 ± 1
323.15 K, 20100 kPa	927 ± 1
323.15 K, 25100 kPa	930 ± 1
323.15 K, 30500 kPa	933 ± 1
333.15 K, 100 kPa	903 ± 1
333.15 K, 2500 kPa	906 ± 1
333.15 K, 5100 kPa	907 ± 1
333.15 K, 10100 kPa	911 ± 1
333.15 K, 15100 kPa	915 ± 1
333.15 K, 20200 kPa	918 ± 1
333.15 K, 25000 kPa	921 ± 1
333.15 K, 30100 kPa	924 ± 1
343.15 K, 100 kPa	894 ± 1
343.15 K, 2600 kPa	896 ± 1
343.15 K, 5100 kPa	898 ± 1
343.15 K, 10000 kPa	902 ± 1
343.15 K, 15000 kPa	906 ± 1
343.15 K, 20200 kPa	909 ± 1
343.15 K, 25100 kPa	913 ± 1
343.15 K, 30300 kPa	916 ± 1
353.15 K, 100 kPa	885 ± 1
353.15 K, 2500 kPa	887 ± 1
353.15 K, 5200 kPa	889 ± 1
353.15 K, 10000 kPa	893 ± 1
353.15 K, 14900 kPa	897 ± 1
353.15 K, 20200 kPa	901 ± 1
353.15 K, 25200 kPa	905 ± 1
353.15 K, 30100 kPa	908 ± 1
363.15 K, 200 kPa	876 ± 1
363.15 K, 2500 kPa	878 ± 1
363.15 K, 5000 kPa	880 ± 1
363.15 K, 10100 kPa	884 ± 1
363.15 K, 15200 kPa	888 ± 1
363.15 K, 20300 kPa	892 ± 1
363.15 K, 25200 kPa	896 ± 1
363.15 K, 30000 kPa	899 ± 1
373.15 K, 100 kPa	866 ± 1
373.15 K, 2600 kPa	868 ± 1
373.15 K, 5100 kPa	871 ± 1
373.15 K, 10000 kPa	875 ± 1
373.15 K, 15100 kPa	880 ± 1
373.15 K, 20300 kPa	884 ± 1
373.15 K, 25100 kPa	888 ± 1
373.15 K, 30600 kPa	892 ± 1
383.15 K, 100 kPa	856 ± 1
383.15 K, 2500 kPa	859 ± 1
383.15 K, 5000 kPa	861 ± 1
383.15 K, 10000 kPa	866 ± 1
383.15 K, 15000 kPa	870 ± 1
383.15 K, 20300 kPa	875 ± 1
383.15 K, 25300 kPa	879 ± 1
383.15 K, 30200 kPa	883 ± 1
393.15 K, 15000 kPa	870 ± 1
403.15 K, 100 kPa	837 ± 1
403.15 K, 2500 kPa	840 ± 1
403.15 K, 5100 kPa	843 ± 1
403.15 K, 10200 kPa	848 ± 1
403.15 K, 15000 kPa	853 ± 1
403.15 K, 20700 kPa	858 ± 1
403.15 K, 25200 kPa	862 ± 1
403.15 K, 30900 kPa	867 ± 1
413.15 K, 100 kPa	826 ± 1
413.15 K, 2600 kPa	830 ± 1
413.15 K, 5000 kPa	833 ± 1
413.15 K, 10100 kPa	838 ± 1
413.15 K, 15100 kPa	844 ± 1
413.15 K, 20100 kPa	849 ± 1
413.15 K, 25200 kPa	854 ± 1
413.15 K, 30200 kPa	858 ± 1

From the NIST ThermoML archive (doi:10.1016/j.fluid.2016.08.014)
